{
  "source": "patent US20060247156A1",
  "about": "“Use of neuropeptides for ligament, cartilage, and bone healing” (priority 2004, published 2006)",
  "key": {"[1]": {"test_system": "ruptured MCL of a FNT rat", "test": "Local neuropeptide delivery to ruptured MCL of femoral nerve transected (FNT) rats: mechanical testing, histomorphology", "type": "in vivo", "conditions": "for failure force / ultimate stress / mechanical strength of healing MCL (in words): two weeks of healing; for mechanical strength of healing MCL (in words): local delivery of SP or CGRP", "description": "Surgical Procedure: Thirteen female Wistar rats (278 g to 315 g) were divided into two groups: femoral nerve transection (FNT) or sham control. All rats were anesthetized with isofluorane (isofluorane 0.5-3%). […] Skin covering the anterior inguinal region was shaved and prepared for surgery. A skin incision approximately 15 mm long was made and the fascia distal to the inguinal was incised. The femoral artery, vein, and nerve were exposed and the femoral nerve was isolated and transected (with removal of a 5 mm segment of the nerve) using 3-0 dexon suture. The fascia and skin were closed in two layers with 3-0 continuous dexon suture. Immediately following FNT, rats from each group (n=4 FNT; n=3 controls) underwent a complete surgical rupture of the MCL to one knee. The contra-lateral knee underwent sham surgery. Two weeks post-knee surgery, rats were sacrificed using an overdose of pentobarbitone (150 mg/kg).\nLocal delivery of NPs and NP inhibitors is important to identify the specific roles of individual NPs on healing tissues. […] Briefly, NP infused mini-osmotic pumps were implanted subcutaneously into the back of rats. A small catheter running from the pump to an intramuscular space above the MCL was secured to the rat.\nTo test whether sensory NPs improve healing in femoral nerve transection (FNT) ruptured MCLs, three female Wistar rats (199 g to 203 g) were given SP locally to the MCL. Substance P (103 pg/μl) was infused into a miniosmotic pump and was delivered to a ruptured MCL of a FNT rat (see surgical procedure in Example 1 above). […] The results are presented graphically in FIG. 5\nAnimal Model and Surgery: Thirty-seven female Wistar rats (199-298 g) were divided into five groups. […] Rats that were designated to receive NPY, VIP, or a combination of NPY and VIP underwent bilateral surgical sympathectomy. Following surgical nerve transection, each rat also underwent bilateral MCL rupture. Neuropeptides were then delivered ruptured MCLs unilaterally. Neuropeptide infused mini-osmotic pumps (Alzet Corp.) were implanted subcutaneously into the back of each rat. A small catheter running from the pump was run to an intramuscular space above the MCL and was secured. To ensure that neuropeptides are delivered directly to the MCL, rhodamine labeled SP was delivered via a catheter to the MCL (n=2 rats).\nTo test whether autonomic NPs improve healing in SS ruptured MCLs, seven rats were given VIP, seven rats were given NPY, and seven rats were given a combination of VIP and NPY.\nMechanical Testing: Mechanical testing was performed as described in the preceding examples. Briefly, animal hind limbs from all groups (n=4 for all groups) were disarticulated at the hip joint and stored at −80° C. until testing. On the day of testing, MCLs including intact femoral and tibial bone sections were excised for ex vivo testing. Ligament thickness and width was measured optically, and MCL area was estimated with elliptical geometry. For strain measurements, optical markers were placed onto the ligament tissue near the insertion sites. A small preload of 0.1N was applied to the ligaments in order to obtain a uniform starting point. The ligaments were then preconditioned to 1% strain for 10 cycles. After preconditioning, ligaments were pulled to failure at a rate of ˜10% per second. Tissue displacement was obtained using video dimensional analysis using equations (1) and (2) supra. The mechanical properties that were examined in this study were maximum force, ultimate stress, strain at failure, elastic modulus, and area."}, "[2]": {"test_system": "cartilage and subchondral bone defect in the trochlear groove", "test": "Full-thickness cartilage defect healing with substance P delivery, histological grading", "type": "in vivo, rat", "description": "Purpose-bred male Wistar rats, were used in this Example. Rats were acclimated to the animal care facility for seven days before use. All rats then undergo general anesthesia for surgical induction of cartilage injury. All rats underwent bilateral surgery. At the time of surgery, miniosmotic pumps were placed for NP treatment. All pumps remained in place throughout the experiment. At various time intervals after the surgery (2, 4 and 6 weeks), the rats were euthanized each joint was harvested for histological analysis.\nCartilage Injury: A […] long incision was made over the patellar tendon and the tendon and surrounding tissue was exposed. A mini-arthrotomy was made and the patella was subluxed (dislocated) to expose the femoral condyles and trochlear groove. A drill was used to create a full thickness (3 mm deep) hole, 0.635 mm in diameter, in the trochlear groove. The patella was then repositioned and the muscle fascia and subcutaneous tissue was closed with a continuous suture pattern, and the skin apposed with skin staples.\nNeuropeptide delivery: Substance P (75 pg/100 μl) was infused subcutaneously (0.25 μl/hr) via the implantation of mini-osmotic pumps (Alza Corp. Palo Alto, Calif.). In all rats, neuropeptide infused pumps were implanted in a subcutaneous pocket after induction of general anesthesia. […]"}, "[3]": {"conditions": "Example 3: SP 103 pg/μl via mini-osmotic pump to ruptured MCL of FNT rat"}, "[4]": {"conditions": "Example 6: SP 75 pg/100 μl via mini-osmotic pump, FNT rats, bilateral MCL rupture"}},
  "note": "“Also recorded” adds a separate entry of the source.",
  "data": [
    {"substance": "Substance P [SP]", "values": [
      {"measurement": "failure force", "setting": "[1]; [3]", "value": 74.3, "unit": "N"},
      {"measurement": "ultimate stress", "setting": "[1]; [3]", "value": 72.33, "unit": "MPa"},
      {"measurement": "failure force", "setting": "[1]; [4]", "value": "74.3±7.9", "unit": "N"},
      {"measurement": "ultimate stress", "setting": "[1]; [4]", "value": "72.33±22.1", "unit": "MPa"},
      {"measurement": "histomorphology (H&E) of healing MCL", "setting": "[1]; FNT rats, SP 75 pg/100 μl or CGRP 10 pg/100, two weeks", "value": "cells were more aligned"},
      {"measurement": "mechanical strength of healing MCL (in words)", "setting": "[1]; FNT rats", "value": "greater than the strength of uninjured MCLs; also recorded: greater than that of normally innervated, intact MCLs"},
      {"measurement": "mechanical strength of healing MCL (in words)", "setting": "[1]; FNT rats, listed as Substance P", "value": "completely reversed the functional deficits"},
      {"measurement": "average cartilage repair score (0 no damage to 24)", "setting": "[2]; Substance P 75 pg/100 μl, 0.25 μl/hr via mini-osmotic pump, initial two week period, Sellers grading", "value": 11.9},
      {"measurement": "healing of cartilage and subchondral bone (in words)", "setting": "[2]; full-thickness cartilage defects after two weeks of healing", "value": "greatly improved healing of both the cartilage and subchondral bone"}
    ]}
  ]
}
